# Measurements: patent publication US20260226074A1, “FUNGICIDAL COMPOSITIONS” (SYNGENTA CROP PROTECTION AG, priority 2023, published 2026)
# How the values were obtained:
# Format in all cases: cell-based
# Conditions in all cases: single compound
# Sclerotinia sclerotiorum = Sclerotinia sclerotiorum growth inhibition in nutrient broth (microtiter plate, photometric, 72 hrs, 620 nm)
# Procedure: Sclerotinia sclerotiorum (Cottony Rot, White Mold, Etc.); Mycelial fragments of the fungus prepared from a fresh liquid culture were directly mixed into nutrient broth (PDB potato dextrose broth). A DMSO solution of the test compounds was placed into a microtiter plate (96-well format) and the nutrient broth containing the fungal spores was added to it. The test plates were incubated at 24 C and the inhibition of growth was determined photometrically after 72 hrs at 620 nm
# [1] = system: Glomerella lagenarium Syn. Colletotrichum lagenarium; experiment: Glomerella lagenarium growth inhibition in nutrient broth (microtiter plate, photometric, 72 hrs, 620 nm)
# Procedure: (§1) Glomerella lagenarium Syn. Colletotrichum lagenarium (Anthracnose of Cucurbits); Conidia of the fungus from cryogenic storage were directly mixed into nutrient broth (PDB potato dextrose broth). A DMSO solution of the test compounds was placed into a microtiter plate (96-well format) and the nutrient broth containing the fungal spores was added to it. The test plates were incubated at 24 C and the inhibition of growth was determined photometrically after 72 hrs at 620 nm.
# Alternaria solani = Alternaria solani growth inhibition in nutrient broth (microtiter plate, photometric, 48 hrs)
# Procedure: as §1, with “Alternaria solani (Early Blight Tomato/Potato):” for “Glomerella lagenarium Syn. Colletotrichum lagenarium (Anthracnose of Cucurbits);”, “48 hrs.” for “72 hrs at 620 nm.”
# [2] = system: Mycosphaerella arachidis Syn. Cercospora arachidicola; experiment: Mycosphaerella arachidis growth inhibition in nutrient broth (microtiter plate, photometric, 5-6 days, 620 nm)
# Procedure: as §1, with “Mycosphaerella arachidis” for “Glomerella lagenarium”, “Cercospora arachidicola (Brown Leaf Spot” for “Colletotrichum lagenarium (Anthracnose”, “Peanut):” for “Cucurbits);”, “5-6 days” for “72 hrs”, “nm” for “nm.”
# Septoria tritici = Septoria tritici growth inhibition in nutrient broth (microtiter plate, photometric, 72 hrs)
# Procedure: as §1, with “Septoria tritici (Leaf Blotch):” for “Glomerella lagenarium Syn. Colletotrichum lagenarium (Anthracnose of Cucurbits);”, “hrs.” for “hrs at 620 nm.”
smiles,measurement,setting,value
"CCn1nccc1-c1c(Cl)cccc1Cc1cc2ccc(F)c(F)c2nc1C [3-[[3-chloro-2-(2-ethylpyrazol-3-yl)phenyl]methyl]-7,8-difluoro-2-methyl-quinoline]",Observed Activity,Sclerotinia sclerotiorum; 2 ppm,0%
same,Observed Activity,Sclerotinia sclerotiorum; 6 ppm,20%
same,Observed Activity,[1]; 0.074 ppm,20%
same,Observed Activity,[1]; 0.22 ppm,90%
same,Observed Activity,[1]; 0.74 ppm,20%
"CCCn1nccc1-c1c(F)cccc1Nc1nc2ccc(F)c(F)c2nc1C [5,6-difluoro-N-[3-fluoro-2-(2-propylpyrazol-3-yl)phenyl]-3-methyl-quinoxalin-2-amine]",Observed Activity,Sclerotinia sclerotiorum; 6.66 ppm,0%
same,Observed Activity,Sclerotinia sclerotiorum; 20 ppm,0%
same,Observed Activity,Alternaria solani; 0.25 ppm,20%
same,Observed Activity,Alternaria solani; 0.74 ppm,20%
same,Observed Activity,[1]; 0.66 ppm,70%
"Cc1cc(C2=NOCC(Cc3ccc(Br)cc3C)N2)c(Oc2cccc(Cl)c2F)nn1 (stereo not shown) [Compound A-1.3, 5-[(4-bromo-2-methyl-phenyl)methyl]-3-[3-(3-chloro-2-fluoro-phenoxy)-6-methyl-pyridazin-4-yl]-5,6-dihydro-4H-1,2,4-oxadiazine]",Observed Activity,Sclerotinia sclerotiorum; 0.02 ppm,20%
same,Observed Activity,Sclerotinia sclerotiorum; 0.2 ppm,70%
same,Observed Activity,[2]; 0.02 ppm,0%
same,Observed Activity,[2]; 0.2 ppm,0%
same,Observed Activity,Septoria tritici; 0.2 ppm,0%
same,Observed Activity,[1]; 0.02 ppm,20%
same,Observed Activity,[1]; 0.2 ppm,90%
"Cn1nnnc1/C(=N\OCc1cccc(NC(=O)OC(C)(C)C)n1)c1ccccc1 [Picarbutrazox, picarbutrazox]",Observed Activity,Sclerotinia sclerotiorum; 6.66 ppm,0%
same,Observed Activity,Sclerotinia sclerotiorum; 20 ppm,0%
"COC(=O)NCc1cc(/C(C)=N/OCc2cccc(C)n2)ccc1Cl [Pyribencarb, pyribencarb]",Observed Activity,Sclerotinia sclerotiorum; 0.008 ppm,20%
same,Observed Activity,[1]; 0.22 ppm,20%
"CCn1nccc1-c1ccccc1Nc1nc2ccc(F)c(F)c2nc1C [N-[2-(2-ethylpyrazol-3-yl)phenyl]-5,6-difluoro-3-methyl-quinoxalin-2-amine]",Observed Activity,Sclerotinia sclerotiorum; 6.66 ppm,0%
same,Observed Activity,Sclerotinia sclerotiorum; 20 ppm,0%
same,Observed Activity,Alternaria solani; 0.08 ppm,20%
same,Observed Activity,Alternaria solani; 0.246 ppm,20%
same,Observed Activity,Alternaria solani; 0.74 ppm,20%
"Cc1ccc(N(SC(F)(Cl)Cl)S(=O)(=O)N(C)C)cc1 [Tolylfluanid, tolylfluanid]",Observed Activity,Sclerotinia sclerotiorum; 0.025 ppm,0%
same,Observed Activity,Sclerotinia sclerotiorum; 0.074 ppm,0%
same,Observed Activity,Sclerotinia sclerotiorum; 0.22 ppm,90%
same,Observed Activity,[2]; 0.22 ppm,20%
same,Observed Activity,[2]; 0.66 ppm,90%
same,Observed Activity,[1]; 0.025 ppm,20%
same,Observed Activity,[1]; 0.074 ppm,50%
"CCCn1nccc1-c1c(Cl)cccc1Nc1cc2ccc(F)c(F)c2nc1C [N-[3-chloro-2-(2-propylpyrazol-3-yl)phenyl]-7,8-difluoro-2-methyl-quinolin-3-amine]",Observed Activity,Sclerotinia sclerotiorum; 0.66 ppm,0%
same,Observed Activity,Sclerotinia sclerotiorum; 2 ppm,0%
same,Observed Activity,Alternaria solani; 0.008 ppm,0%
same,Observed Activity,Alternaria solani; 0.025 ppm,20%
same,Observed Activity,Septoria tritici; 0.008 ppm,0%
same,Observed Activity,Septoria tritici; 0.025 ppm,0%
same,Observed Activity,Septoria tritici; 0.074 ppm,20%
same,Observed Activity,Septoria tritici; 0.22 ppm,20%
"CC(Oc1ccc(Cl)cc1Cl)C(=O)NC(C)(C#N)C(C)C (stereo not shown) [Fenoxanil, fenoxanil]",Observed Activity,Sclerotinia sclerotiorum; 2.22 ppm,0%
same,Observed Activity,Sclerotinia sclerotiorum; 6.66 ppm,0%
same,Observed Activity,Sclerotinia sclerotiorum; 20 ppm,0%
"Cc1ccc(CC2CON=C(c3cc(C)nnc3Oc3cccc(Cl)c3F)N2)c(Cl)c1 (stereo not shown) [Compound A-1.1, 3-[3-(3-chloro-2-fluoro-phenoxy)-6-methyl-pyridazin-4-yl]-5-[(2-chloro-4-methyl-phenyl)methyl]-5,6-dihydro-4H-1,2,4-oxadiazine]",Observed Activity,Alternaria solani; 0.01 ppm,50%
same,Observed Activity,Septoria tritici; 0.01 ppm,0%
same,Observed Activity,Septoria tritici; 0.1 ppm,0%
same,Observed Activity,[1]; 0.01 ppm,20%
same,Observed Activity,[1]; 0.1 ppm,90%
